Test results reported in patent US20090124608A1, “CB2 Receptor Modulators In Neurodegenerative Diseases And Applications Of The Same” (priority 2006, published 2009).
“Also recorded” adds a separate entry of the source.

Tests used:
G93A-SOD1 mice [1] = experiment: Survival of G93A mice, daily i.p. treatment initiated at symptom onset; type: in vivo, mouse; conditions: for survival interval (symptom onset to sacrifice): vehicle 23.7+/−1.7 days; for Survival Interval Ratio (SIR) / Total Life-Span Ratio (TLR): G93A mice, i.p. daily from onset
From the text: Hemizygous transgenic male mice with the G93A mutation of the human SOD1 gene (G1H/1) mutation (B6SJL-TgN (SOD1-G93A) 1 Gur) were obtained from Jackson Laboratories and were bred locally with female B6SJL mice (Jackson Laboratory), according to the protocol obtained from the vendor. To decrease the inherent variability in disease onset and survival with these mice, littermate transgenic males (rather than random males from several different litters) were selected to sire subsequent generations of mice.
Determination of symptom onset, randomization and drug treatment of G93A mice. Symptom onset was assessed by blinded observation of changes in hind limb gait; these changes are related to the mouse's inability to support its weight on its hind limbs. At onset, mice initially place their weight on the toes and then quickly fall to full foot placement (as opposed to healthy mice which walk and run on the hind toes); this “toe-to-heel” walking pattern produces an asymmetric gait between hind and fore limbs and a characteristic “wobbling” gait. Mouse groups were randomized based on symptom onset and alternately placed in control and treated groups, e.g., the first mouse to develop hind limb weakness was placed in the control group, the second was injected with test compound and placed in the treatment group, and so on. […] By definition, the onset administration paradigm employed was focused on what we term the “survival interval”—namely the time from onset to end-stage sacrifice.
Mice were sacrificed when any of the following criteria were met: (1) inability to right themselves within 30 seconds when placed on their sides; (2) inability to eat or drink, or move toward food and water placed in low-rimmed dishes on cage floor; (3) loss of more than 10% of total body weight in 24 hours; (4) gross loss of grooming behavior; or (5) labored breathing. Criteria for death were confirmed by a second investigator who is blinded to the group identity of each mouse. The age of symptom onset was subtracted from the age at death for each mouse, and a mean survival interval was calculated for each group. By calculating the ratio of the survival interval of treated groups to the survival interval of untreated littermate controls, a X-fold increase in survival was readily determined.
The effect of chronic administration of cannabinoids on the survival of G93A mice was next examined (FIG. 4). […] The number of days between symptom onset and animal sacrifice was measured (e.g., survival interval). In humans, this is analogous to the time between diagnosis of ALS and death, ranging from 2-5 years.

G93A-SOD1 mice [2] = experiment: Motor function test (clinging to perpendicular wire mesh screen for 60 seconds) in G93A mice; type: in vivo, mouse
Method: Beginning on the first day of observing symptoms, mice were tested for motor function biweekly until sacrifice. Motor function testing was initiated by gently placing animals on a horizontal wire mesh screen. The screen was slowly rotated to be perpendicular to the ground (90°). The duration that mice were able to hang onto the perpendicular wire mesh up to a maximum of 120 seconds was recorded. Because vehicle treated mice on average lost the ability to cling to the wire mesh for 60 seconds in the middle of their survival curve, this “all or none” response was utilized to compare motor function across all treatment groups. Kaplan-Meier time-to-event statistics were employed to analyze the data. The event was defined as the number of days after symptom onset that each individual animal was no longer able to cling to the wire mesh screen for 60 seconds.
Testing twice a week for the duration of the study provided a quantifiable decline during disease progression. Mice were placed on a horizontal wire mesh screen that was gently inverted to 90°. Kaplan-Meier time-to-event curves were used to analyze the data. The event was defined as the day each animal was no longer able to cling to the perpendicular screen for 60 seconds. […] The disparity between male and female motor function was paralleled by the interval between survival for the genders. Male mice survived an average of 39.6±2.0 (FIG. 6a) days past the onset of symptoms, while females lived 9 days longer than males (p<0.0018*, FIG. 6b). For males and females, loss of motor function preceded death by 20.5 (p<0.0002***) and 19.0 days (p<0.0028**), respectively.

cannabinoid receptors = experiment: GTPγS binding in end stage spinal cord homogenates from G93A-SOD1 mice, separated by gender; type: biochemical, mouse; conditions: for 2-AG stimulated G-protein activation remaining on co-incubation with CB2 ligand: 2-AG 3 μM; for 2-AG stimulated G-protein activation remaining on co-incubation with CB2 ligand / HU-210 stimulated G-protein activation remaining on co-incubation with CB2 ligand: ligand 1 μM; for HU-210 stimulated G-protein activation remaining on co-incubation with CB2 ligand: HU-210 100 nM
Method: (§1) [^35S]GTPγS binding assays were performed as described previously (Prather et al. 2000a) in a buffer containing 20 mM Hepes, 100 mM NaCl, and 10 mM MgCl2 at pH 7.4. Each binding reaction contained 10 μg of spinal cord membrane protein, the presence or absence of cannabinoid ligands (see following), plus 0.1 nM [^35S]GTPγS (1250 Ci/mmol, Perkin Elmer Life and Analytical Sciences) and […] of GDP to suppress basal G-protein activation. Reactions were incubated for 2 hrs at 30 °C. Non-specific binding was defined by binding observed in the presence of 10 μM of non-radioactive GTPγS. The reaction was terminated by rapid vacuum filtration through glass fiber filters followed by two washes with ice-cold assay buffer. 4 mL of scintiverse® (Fisher Scientific) was added to the filters and radioactivity quantified by scintillation counting.
Harvested spinal cords from the vehicle treated control groups at the end-stage of their disease were separated by gender and used to conduct GTP7S binding experiments, which measure the capability of a ligand to promote or suppress G-protein activation.
It was next determined if the selective CB2 ligands antagonize G-protein activation produced by an endocannabinoid such as 2-AG as well.

CB1 and CB2 receptors = experiment: [35S]GTPγS binding with selective agonists in mouse spinal cord membranes; type: biochemical; conditions: data not shown
Method: as §1
We initially attempted to compare CB 1 and CB2 receptor activation of G-proteins between WT-OE and G93A spinal cord membranes by conducting [^35S]GTPγS binding assays in the presence of selective agonists.

CB1 receptors [3] = conditions: Yao et al. 2006; read-out: affinity for CB1 receptors; cited from earlier work
CB2 receptors = CB2 receptors (Homo sapiens, UniProt P34972); conditions: Yao et al. 2006, cited from earlier work
[4] = Water solubility and dissolution in vehicles
CB1/CB2 receptors [5] = experiment: [35S]GTPγS binding, selective antagonism of HU-210, WT-OE spinal cord membranes; type: biochemical, mouse; conditions: antagonist 3 μM
CB1/CB2 receptors [6] = experiment: [35S]GTPγS binding, selective antagonism of HU-210, G93A spinal cord membranes; type: biochemical, mouse; conditions: antagonist 3 μM
CB1 receptors [7] = biological target: T1, CB1 receptors (Mus musculus, UniProt P47746); experiment: Antagonism of HU-210 G-protein activation in mouse cortex membranes; type: biochemical; conditions: cortical membranes, HU-210 100 nM
T1 construct: employing membranes prepared from mouse cortex as a relatively pure source of CB1 receptors; from tissue; host or cells: mouse cortex
From the text: This was accomplished by antagonism experiments employing membranes prepared from mouse cortex as a relatively pure source of CB1 receptors.

G93A-SOD1 mice [8] = conditions: administration after the onset of symptoms; Raman et al. 2004, Weydt et al. 2005; cited from earlier work
[9] = daily injections initiated at symptom onset
[10] = WT-OE spinal cord membranes, HU-210 100 nM
[11] = G93A spinal cord membranes, HU-210 100 nM

Sequence of CB2 receptors (P34972 whole entry): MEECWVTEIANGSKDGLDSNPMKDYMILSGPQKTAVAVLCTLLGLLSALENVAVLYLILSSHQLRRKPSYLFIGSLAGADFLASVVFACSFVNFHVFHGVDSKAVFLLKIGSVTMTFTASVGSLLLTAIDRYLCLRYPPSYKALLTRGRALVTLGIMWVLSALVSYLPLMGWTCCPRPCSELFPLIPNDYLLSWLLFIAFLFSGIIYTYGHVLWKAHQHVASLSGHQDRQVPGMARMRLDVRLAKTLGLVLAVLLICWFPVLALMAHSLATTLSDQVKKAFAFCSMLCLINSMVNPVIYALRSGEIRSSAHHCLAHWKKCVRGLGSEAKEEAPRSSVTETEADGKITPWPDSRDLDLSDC
T1 sequence (P47746 whole entry): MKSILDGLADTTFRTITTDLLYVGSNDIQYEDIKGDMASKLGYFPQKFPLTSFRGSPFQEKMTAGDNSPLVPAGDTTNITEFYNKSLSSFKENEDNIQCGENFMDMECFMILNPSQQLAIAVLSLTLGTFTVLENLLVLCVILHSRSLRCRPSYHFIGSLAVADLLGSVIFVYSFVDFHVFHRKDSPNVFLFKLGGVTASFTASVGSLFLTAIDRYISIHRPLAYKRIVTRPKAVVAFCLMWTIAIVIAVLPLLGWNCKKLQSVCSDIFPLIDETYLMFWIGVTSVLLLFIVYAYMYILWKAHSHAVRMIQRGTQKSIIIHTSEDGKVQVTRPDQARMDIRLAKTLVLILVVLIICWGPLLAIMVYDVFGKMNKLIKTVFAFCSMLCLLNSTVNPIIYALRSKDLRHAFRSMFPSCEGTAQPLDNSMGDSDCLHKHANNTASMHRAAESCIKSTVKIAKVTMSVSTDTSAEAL

With `CN1CCCCC1Cn1cc(C(=O)c2cc([N+](=O)[O-])ccc2I)c2ccccc21` (racemic) [AM-1241, (R,S)-(+)-(2-Iodo-5-nitrobenzoyl)-[1-(1-methyl-piperidin-2-ylmethyl-1H-indole-3-yl]methanone] the “increase in survival interval versus vehicle” value (G93A-SOD1 mice [1]; 0.3 mg/kg daily i.p.) was 9.7 days, the “survival interval (symptom onset to sacrifice)” value (G93A-SOD1 mice [1]; 0.3 mg/kg daily i.p.) was 33.4 ± 2.2 days and the “increase in survival interval versus vehicle” value (G93A-SOD1 mice [1]; 3 mg/kg daily i.p.) was 13.2 days. The “survival interval (symptom onset to sacrifice)” value (G93A-SOD1 mice [1]; 3 mg/kg daily i.p.) was 36.9 ± 2.8 days, the “Survival Interval Ratio (SIR)” value (G93A-SOD1 mice [1]; 0.3 mg/kg) was 1.41 and the “Total Life-Span Ratio (TLR)” value (G93A-SOD1 mice [1]; 0.3 mg/kg) was 1.07. For the same compound, the “Survival Interval Ratio (SIR)” value (G93A-SOD1 mice [1]; 3.0 mg/kg) was 1.56, the “Total Life-Span Ratio (TLR)” value (G93A-SOD1 mice [1]; 3.0 mg/kg) was 1.11 and the “extension of total life-span versus controls” value (G93A-SOD1 mice [1]; [9]) was 11%. For the same compound, the “living longer after symptom onset than controls (survival interval increase)” value (G93A-SOD1 mice [1]; [9]) was 56%, the “survival improvement versus vehicle, females” value (G93A-SOD1 mice [1]; female G93A mice, 3 mg/kg for AM-1241 and AM630, JTE-907 dose not given) was “did not live significantly longer” and the “survival improvement versus vehicle, males” value (G93A-SOD1 mice [1]; male G93A mice, 3 mg/kg for AM-1241 and AM630, JTE-907 dose not given) was 19%. The “effect on survival of G93A-SOD1 mice” value (G93A-SOD1 mice [1]; treatment initiated at symptom onset) was “pronounced increase in survival”, the “improvement in motor function versus vehicle, females” value (G93A-SOD1 mice [2]; female G93A mice, time to loss of ability to cling 60 seconds) was 37% and the “interval between mean loss of motor function and death, females” value (G93A-SOD1 mice [2]; female mice, vehicle 19.0 days) was 9.0 days. For the same compound, the “improvement in motor function versus vehicle, males” value (G93A-SOD1 mice [2]; male G93A mice, time to loss of ability to cling 60 seconds) was 81%, the “loss of motor function, days after observation of symptoms” value (G93A-SOD1 mice [2]; male mice, vehicle 19.1±3.9 days) was 34.5 ± 5.5 days and the “interval between mean loss of motor function and death, males” value (G93A-SOD1 mice [2]; male mice, vehicle 20.5 days) was 12.8 days. For the same compound, the “2-AG stimulated G-protein activation remaining on co-incubation with CB2 ligand” value (cannabinoid receptors; female homogenate) was 11.62±2.2 fmole/mg protein, the “HU-210 stimulated G-protein activation remaining on co-incubation with CB2 ligand” value (cannabinoid receptors; female homogenates) was 19.89±1.5 fmole/mg protein and the “2-AG stimulated G-protein activation remaining on co-incubation with CB2 ligand” value (cannabinoid receptors; male homogenate) was 9.09±52.1 fmole/mg protein. For the same compound, the “HU-210 stimulated G-protein activation remaining on co-incubation with CB2 ligand” value (cannabinoid receptors; male homogenates) was 9.73±2.5 fmole/mg protein, the “effect on G-protein activation” value (cannabinoid receptors; male spinal cord) was “relatively small decrease in G-protein activation” and the “G-protein activation by selective agonist” value (CB1 and CB2 receptors) was “failed attempts to demonstrate consistent, measurable G-protein activation; also recorded: unable to demonstrate consistent, measurable G-protein activation”. The Ki (CB1 receptors [3]) was 580 nM, the “higher affinity for CB2 relative to CB1” value (CB2 receptors) was greater than 80 fold and the Ki (CB2 receptors; read-out: affinity for CB2 receptors) was 7 nM. The “water solubility” value [4] was “very poor water solubility” and the “stable dissolution in tested vehicles” value ([4]; ethanol/water, glycerol, polyethylene glycol, high purity olive oil tested) was “achieved only with olive oil”.

For `CC1=CC[C@@H]2[C@@H](C1)c1ccc(CC#CCCCNS(C)(=O)=O)cc1OC2(C)C` [O-2050, (6aR,1OaR)-3-(1-Methanesulfonylamino-4-hexyn-6-yl)-6a,7,10,10a-tetrahydro-6,6,9-trimethyl-6H-dibenzo[b,d]pyran], the “net reduction of HU-210-induced G-protein activation” value (CB1/CB2 receptors [5]; WT-OE membranes) was 28.3 fmoles/mg protein, the “% blockade of HU-210-induced G-protein activation” value (from here on “% blockade”) (CB1/CB2 receptors [5]; [10]) was 92% and the “HU-210 stimulated [35S]GTPγS binding remaining on co-incubation with antagonist” value (CB1/CB2 receptors [5]; [10]) was 2.5±0.8 fmole/mg protein. The “net reduction of HU-210-induced G-protein activation” value (CB1/CB2 receptors [6]; G93A membranes) was 25.9 fmole/mg protein, the “% blockade” value (CB1/CB2 receptors [6]; [11]) was 45% and the “HU-210 stimulated [35S]GTPγS binding remaining on co-incubation with antagonist” value (CB1/CB2 receptors [6]; [11]) was 31.5±4.4 fmole/mg protein. The “% blockade” value (CB1/CB2 receptors [6]; G93A spinal cord membranes, HU-210 100 nM, listed as 0-2050) was 46% and the “minimal concentration required to completely block HU-210-mediated G-protein activation by CB1 receptors” value (CB1 receptors [7]) was 3 μM.

In the case of `CCCCCc1cc(O)c2c(c1)OC(C)(C)c1ccc(C)cc1-2` [cannabinol], the “delaying motor impairment and prolonging survival in G93A mice” value (G93A-SOD1 mice [8]) is listed as “minimally successful”.

For `CCCCCc1cc(O)c2c(c1)OC(C)(C)[C@@H]1CCC(C)=C[C@@H]21` [Δ^9-THC, Δ^9-Tetrahydrocannabinol], the “delaying motor impairment and prolonging survival in G93A mice” value (G93A-SOD1 mice [8]) is listed as “minimally successful”.
